Measurements taken from ChEMBL document CHEMBL1152596, “Inhibition of serotonin and norepinephrine reuptake and inhibition of phosphodiesterase by multi-target inhibitors as potential agents for depression” (Bioorg Med Chem, 2009).
pIC50, pKi: −log10 of the molar value.

What was measured:
[1] = target: T1, Sodium-dependent noradrenaline transporter (Homo sapiens, UniProt P23975); assay: biochemical
Description: Displacement of [125I]RTI-55 from human recombinant NET expressed in HEK293 cells by scintillation counting

[2] = target: T2, Sodium-dependent serotonin transporter (Homo sapiens, UniProt P31645); assay: biochemical
Description: Displacement of [125I]RTI-55 from human recombinant SERT expressed in HEK293 cells

[3] = target: T2, Sodium-dependent serotonin transporter
Description: Inhibition of [3H]5HT reuptake at human SERT expressed in HEK293 cells

[4] = target: T1, Sodium-dependent noradrenaline transporter
Description: Inhibition of [3H]NE reuptake at human NET expressed in HEK cells

[5] = target: T3, Sodium-dependent dopamine transporter (Homo sapiens, UniProt Q01959)
Description: Inhibition of [3H]DA reuptake at human DAT expressed in HEK293 cells

[6] = target: 3',5'-cyclic-AMP phosphodiesterase 4D (Homo sapiens, UniProt Q08499)
Description: Inhibition of PDE4D2 assessed as cAMP hydrolysis

[7] = target: T3, Sodium-dependent dopamine transporter; assay: biochemical
Description: Displacement of [125I]RTI-55 from human recombinant DAT expressed in HEK293 cells

T2 sequence (P31645 whole entry): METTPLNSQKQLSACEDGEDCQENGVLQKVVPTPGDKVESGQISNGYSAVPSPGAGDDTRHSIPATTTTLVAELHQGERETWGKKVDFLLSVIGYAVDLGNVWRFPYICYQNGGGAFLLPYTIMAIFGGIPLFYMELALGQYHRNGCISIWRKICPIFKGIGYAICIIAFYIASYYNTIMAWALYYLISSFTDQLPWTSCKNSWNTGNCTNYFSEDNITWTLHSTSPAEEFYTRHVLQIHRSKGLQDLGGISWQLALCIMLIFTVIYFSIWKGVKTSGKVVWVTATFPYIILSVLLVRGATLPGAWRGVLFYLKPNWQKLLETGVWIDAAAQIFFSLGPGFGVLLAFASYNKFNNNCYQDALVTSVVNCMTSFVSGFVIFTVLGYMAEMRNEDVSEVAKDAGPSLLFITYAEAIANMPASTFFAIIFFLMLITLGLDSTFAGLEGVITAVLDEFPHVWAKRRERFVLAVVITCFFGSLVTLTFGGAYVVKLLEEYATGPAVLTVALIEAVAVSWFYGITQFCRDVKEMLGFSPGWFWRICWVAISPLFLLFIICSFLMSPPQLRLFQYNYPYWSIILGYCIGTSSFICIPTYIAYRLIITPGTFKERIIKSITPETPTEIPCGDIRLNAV
T1 sequence (P23975 whole entry): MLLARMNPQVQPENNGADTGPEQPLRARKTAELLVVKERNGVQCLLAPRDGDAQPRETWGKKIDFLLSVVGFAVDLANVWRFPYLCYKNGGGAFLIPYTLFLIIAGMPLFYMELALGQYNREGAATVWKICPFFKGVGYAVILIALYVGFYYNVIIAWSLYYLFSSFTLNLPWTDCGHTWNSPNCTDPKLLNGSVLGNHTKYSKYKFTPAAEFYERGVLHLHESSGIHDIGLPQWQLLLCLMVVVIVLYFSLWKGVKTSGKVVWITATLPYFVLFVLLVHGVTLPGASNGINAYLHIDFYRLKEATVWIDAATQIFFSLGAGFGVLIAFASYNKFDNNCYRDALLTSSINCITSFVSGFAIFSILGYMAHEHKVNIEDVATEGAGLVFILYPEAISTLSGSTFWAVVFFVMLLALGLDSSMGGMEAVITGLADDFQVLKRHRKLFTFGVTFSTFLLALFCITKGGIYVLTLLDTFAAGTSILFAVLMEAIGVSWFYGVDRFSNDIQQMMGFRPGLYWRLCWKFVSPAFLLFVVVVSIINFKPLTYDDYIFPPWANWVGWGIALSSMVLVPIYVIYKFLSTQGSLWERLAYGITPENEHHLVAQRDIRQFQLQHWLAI
T3 sequence (Q01959 whole entry): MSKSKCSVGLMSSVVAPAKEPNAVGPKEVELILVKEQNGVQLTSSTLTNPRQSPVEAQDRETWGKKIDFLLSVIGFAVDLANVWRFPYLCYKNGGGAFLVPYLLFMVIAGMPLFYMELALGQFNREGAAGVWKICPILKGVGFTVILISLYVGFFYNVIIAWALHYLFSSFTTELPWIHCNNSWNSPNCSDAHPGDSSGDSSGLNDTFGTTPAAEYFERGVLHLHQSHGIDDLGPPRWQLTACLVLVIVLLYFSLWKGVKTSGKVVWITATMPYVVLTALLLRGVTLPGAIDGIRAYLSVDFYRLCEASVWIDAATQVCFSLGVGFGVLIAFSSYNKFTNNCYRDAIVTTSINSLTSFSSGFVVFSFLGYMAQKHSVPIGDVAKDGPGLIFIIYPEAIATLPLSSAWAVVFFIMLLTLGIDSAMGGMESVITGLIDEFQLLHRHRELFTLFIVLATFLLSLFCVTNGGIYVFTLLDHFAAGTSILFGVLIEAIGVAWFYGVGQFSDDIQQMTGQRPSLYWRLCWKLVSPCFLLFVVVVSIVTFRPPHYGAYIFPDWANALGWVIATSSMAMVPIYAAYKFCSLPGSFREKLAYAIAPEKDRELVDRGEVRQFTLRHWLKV
Chain of 3',5'-cyclic-AMP phosphodiesterase 4D (Q08499 whole entry): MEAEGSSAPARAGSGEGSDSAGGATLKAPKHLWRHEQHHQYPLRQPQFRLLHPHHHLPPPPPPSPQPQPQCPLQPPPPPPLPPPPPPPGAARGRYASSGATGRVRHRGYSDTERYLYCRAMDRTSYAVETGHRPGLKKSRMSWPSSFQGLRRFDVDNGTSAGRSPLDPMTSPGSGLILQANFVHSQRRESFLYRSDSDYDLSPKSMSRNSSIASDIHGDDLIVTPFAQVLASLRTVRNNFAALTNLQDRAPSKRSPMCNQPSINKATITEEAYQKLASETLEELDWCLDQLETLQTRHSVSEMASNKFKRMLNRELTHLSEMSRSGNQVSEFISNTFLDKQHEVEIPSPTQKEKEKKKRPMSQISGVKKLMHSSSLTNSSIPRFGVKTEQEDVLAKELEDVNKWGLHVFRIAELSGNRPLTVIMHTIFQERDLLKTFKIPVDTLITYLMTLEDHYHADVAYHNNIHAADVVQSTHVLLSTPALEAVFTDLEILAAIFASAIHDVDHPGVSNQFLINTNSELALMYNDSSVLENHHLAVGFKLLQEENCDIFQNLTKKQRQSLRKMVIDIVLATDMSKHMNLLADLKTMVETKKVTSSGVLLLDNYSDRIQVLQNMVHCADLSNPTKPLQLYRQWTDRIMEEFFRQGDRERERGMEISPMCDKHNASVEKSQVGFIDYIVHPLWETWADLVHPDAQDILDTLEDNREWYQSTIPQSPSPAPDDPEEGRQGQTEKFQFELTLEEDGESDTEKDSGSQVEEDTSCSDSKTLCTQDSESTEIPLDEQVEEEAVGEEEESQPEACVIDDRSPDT

Structure (SMILES)	pKi [1]	pKi [2]	pIC50 [3]	pIC50 [4]	pIC50 [5]	pIC50 [6]	pKi [7]
COc1ccc(C2=NN(CCCCCNCC[C@@H](Oc3cccc4ccccc34)c3cccs3)C(=O)[C@@H]3CC=CC[C@H]23)cc1OC	5.49	6.90	6.35	5.68	5.75	7.35	6.07
COc1ccc(C2=NN(CCCCCNCC[C@H](Oc3cccc4ccccc34)c3cccs3)C(=O)[C@@H]3CC=CC[C@H]23)cc1OC	< 4.00	6.14	6.39	5.66	5.18	7.64	5.34
COc1ccc(C2=NNC(=O)[C@@H]3CC=CC[C@H]23)cc1OC (relative stereo)	< 4.00	< 4.00	< 4.00	< 4.00	< 4.00	6.67	< 4.00

The next molecules have a higher pKi [1] than those just listed; values first:

pKi [1]	pKi [2]	pIC50 [3]	pIC50 [4]	pIC50 [5]	pIC50 [6]	pKi [7]	Structure (SMILES)
6.02	8.08	8.17	6.73	< 5.00	< 4.00	5.45	NCC[C@@H](Oc1cccc2ccccc12)c1cccs1 [R-NORDULOXETINE]
5.62	7.74	7.59	6.35	< 5.00	< 4.00	< 5.00	NCC[C@H](Oc1cccc2ccccc12)c1cccs1 [(S)-NORDULOXETINE]
